In patent US9914737B2, “Triazolopyrimidinone or triazolopyridinone derivatives, and use thereof” (ST PHARM CO., LTD., priority 2014, dated 2018):

Each molecule was assayed against T1, tankyrase 1 (Homo sapiens, UniProt O95271) (assay: Analysis of activity of tankyrase 1 (Trevigen kit, ELISA absorbance at 450 nm)). Conditions: not given.
T1 construct: purchased Trevigen 4700-096-K
T1 sequence (O95271 1-1327): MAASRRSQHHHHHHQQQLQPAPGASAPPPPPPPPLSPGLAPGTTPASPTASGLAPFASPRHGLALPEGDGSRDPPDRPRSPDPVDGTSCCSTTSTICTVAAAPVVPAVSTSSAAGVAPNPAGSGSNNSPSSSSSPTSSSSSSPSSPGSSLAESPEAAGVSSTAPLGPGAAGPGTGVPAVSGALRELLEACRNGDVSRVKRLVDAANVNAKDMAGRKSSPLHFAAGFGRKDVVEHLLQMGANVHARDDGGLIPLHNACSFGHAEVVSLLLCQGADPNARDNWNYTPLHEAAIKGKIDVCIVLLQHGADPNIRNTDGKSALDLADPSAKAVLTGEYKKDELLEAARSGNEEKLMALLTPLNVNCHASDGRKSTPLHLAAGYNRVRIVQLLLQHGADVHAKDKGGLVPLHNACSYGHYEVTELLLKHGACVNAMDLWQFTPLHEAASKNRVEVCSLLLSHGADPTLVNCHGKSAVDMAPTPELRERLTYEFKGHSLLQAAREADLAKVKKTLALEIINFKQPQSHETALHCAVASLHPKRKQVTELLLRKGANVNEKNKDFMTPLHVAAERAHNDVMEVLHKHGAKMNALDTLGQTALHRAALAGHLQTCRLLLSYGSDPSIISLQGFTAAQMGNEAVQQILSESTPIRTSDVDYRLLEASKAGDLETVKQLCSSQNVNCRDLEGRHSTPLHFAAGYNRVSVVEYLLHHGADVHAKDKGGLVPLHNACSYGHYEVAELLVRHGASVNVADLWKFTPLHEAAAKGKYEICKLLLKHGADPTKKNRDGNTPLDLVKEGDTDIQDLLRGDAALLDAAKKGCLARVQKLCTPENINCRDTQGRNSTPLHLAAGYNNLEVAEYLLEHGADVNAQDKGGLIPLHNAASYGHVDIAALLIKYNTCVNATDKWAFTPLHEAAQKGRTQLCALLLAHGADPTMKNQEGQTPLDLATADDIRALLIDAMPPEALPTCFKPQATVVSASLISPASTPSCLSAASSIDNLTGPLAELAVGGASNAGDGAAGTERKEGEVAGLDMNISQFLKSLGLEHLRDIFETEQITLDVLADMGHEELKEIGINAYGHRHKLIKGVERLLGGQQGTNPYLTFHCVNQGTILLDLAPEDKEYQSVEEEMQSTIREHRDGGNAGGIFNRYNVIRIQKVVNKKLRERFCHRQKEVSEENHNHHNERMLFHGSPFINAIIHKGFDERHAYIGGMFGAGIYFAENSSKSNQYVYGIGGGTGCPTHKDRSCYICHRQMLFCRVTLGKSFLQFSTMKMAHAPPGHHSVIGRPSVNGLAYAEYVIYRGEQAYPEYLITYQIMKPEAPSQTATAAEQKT
Type: biochemical
Description: Activities of novel compounds synthesized according to Examples 1 to 72 against tankyrase 1 were analyzed using a Trevigen kit (Cat. No. 4700-096-K). Poly PAR histone protein-coated 96-well plate, anti-PAR monoclonal antibody and goat anti-mouse IgG-HRP were used for measurement of absorbance by ELISA method. Specifically, 20× I-PAR assay buffer was diluted to 1× by adding water, and 50 μL of the diluted buffer was added to each well of the 96-well plate followed by reacting at rt for 30 min. Then, the supernatant was completely removed from each well and 10 μL of 1× I-PAR assay buffer and 15 μL of assay substrate were added to each well along with 1 μL of a 50× solution of inhibitors to be tested, which were the compounds obtained in the Examples 1 to 72. 10 mUnits/μL of tankyrase 1 enzyme was diluted 50-fold with 1× I-PAR assay buffer and 25 μL of the diluted enzyme was added to each well and reacted while stirring at rt for 30 min. One without any compound of the present invention was used as a positive control and another containing 1× I-PAR assay buffer with the same volume instead of tankyrase 1 enzyme was used as a negative control. Upon completion of the reaction, 200 μL of PBSX, which was prepared by adding 0.1% triton X-100 to PBS, was added and removed and this washing process was repeated twice. Washing was repeated twice more using PBS in the same manner. 5× antibody diluent was diluted with distilled water to 1× concentration, 50 μL of the diluted goat anti-mouse IgG-HRP to 1/2000 was added to each well and reacted while stirring at rt for 30 min. Washes were carried out twice using PBSX and PBS, respectively. After adding 50 μL of TACS-sapphire to each well of the plate, the plate was blocked from light to react for 10 min to 15 min and the color of the reaction solution turned blue. To stop the reaction, 50 μL of 0.2N HCl was added to turn the solution yellow. Finally, the absorbance of the resulting solution was measured at 450 nm.

SMILES	IC50 [nM]
COCCOc1cc(F)c(N2CCN(c3cc4c(nnn4C)c(=O)[nH]3)CC2)c(F)c1 [compound 53, 6-(4-(2,6-Difluoro-4-(2-methoxyethoxy)phenyl)piperazin-1-yl)-1-methyl-1H[1,2,3]triazolo[4,5-c]pyridin-4(5H)-one]	22.7

Same assay, conditions: tankyrase 1 enzyme, Trevigen kit Cat. No. 4700-096-K, 30 min at rt; read-out: TNKS1 (IC50)

SMILES	IC50 [nM]
COCCOc1cc(F)c(C2(O)CCN(c3nc4c(nnn4C)c(=O)[nH]3)CC2)c(F)c1 [compound 25, 5-(4-(2,6-Difluoro-4-(2-methoxyethoxy)phenyl)-4-hydroxypiperidin-1-yl)-3-methyl-3H-[1,2,3]triazolo[4,5-d]pyrimidin-7(6H)-one]	33.1
Cn1nnc2c(=O)[nH]c(N3CCC(c4nnn[nH]4)CC3)nc21 [compound 26, 5-(4-(1H-tetrazol-5-yl)piperidin-1-yl)-3-methyl-3H-[1,2,3]triazolo[4,5-d]pyrimidin-7(6H)-one]	411
CN1CCN(CCOc2cc(F)c(N3CCN(c4nc5c(nnn5C)c(=O)[nH]4)CC3)c(F)c2)CC1 [compound 32, 5-(4-(2,6-Difluoro-4-(2-(4-methylpiperazin-1-yl)ethoxy)phenyl)piperazin-1-yl)-3-methyl-3H-[1,2,3]triazolo[4,5-d]pyrimidin-7(6H)-one]	120
Cn1nnc2c(=O)[nH]c(N3CCN(c4c(F)cc(OCCCN5CCCCC5)cc4F)CC3)nc21 [compound 33, 5-(4-(2,6-Difluoro-4-(3-(piperidin-1-yl)propoxy)phenyl)piperazin-1-yl)-3-methyl-3H-[1,2,3]triazolo[4,5-d]pyrimidin-7(6H)-one]	51.3
COCCN(CCOC)c1cc(F)c(N2CCN(c3nc4c(nnn4C)c(=O)[nH]3)CC2)c(F)c1 [compound 34, 5-(4-(4-(Bis(2-methoxyethyl)amino)-2,6-difluorophenyl)piperazin-1-yl)-3-methyl-3H-[1,2,3]triazolo[4,5-d]pyrimidin-7(6H)-one]	67.7
Cn1nnc2c(=O)[nH]c(N3CCN(c4c(F)cc(OCC(=O)N5CCCCC5)cc4F)CC3)nc21 [compound 35, 5-(4-(2,6-Difluoro-4-(2-oxo-2-(piperidin-1-yl)ethoxy)phenyl)piperazin-1-yl)-3-methyl-3H-[1,2,3]triazolo[4,5-d]pyrimidin-7(6H)-one]	48.7
Cn1nnc2c(=O)[nH]c(N3CCN(c4c(F)cc(OCC(=O)N5CCCC5)cc4F)CC3)nc21 [compound 36, 5-(4-(2,6-Difluoro-4-(2-oxo-2-(pyrrolidin-1-yl)ethoxy)phenyl)piperazin-1-yl)-3-methyl-3H-[1,2,3]triazolo[4,5-d]pyrimidin-7(6H)-one]	39.6
Cn1nnc2c(=O)[nH]c(N3CCN(c4c(F)cc(OCCN)cc4F)CC3)nc21 [compound 37, 5-(4-(4-(2-Aminoethoxy)-2,6-difluorophenyl)piperazin-1-yl)-3-methyl-3H-[1,2,3]triazolo[4,5-d]pyrimidin-7(6H)-one]	28.1
CN1CCN(CCOc2cc(F)c(N3CCN(c4nc5c(nnn5C)c(=O)[nH]4)CC3)c(F)c2)C(=O)C1 [compound 38, 5-(4-(2,6-Difluoro-4-(2-(4-methyl-2-oxopiperazin-1-yl)ethoxy)phenyl)piperazin-1-yl)-3-methyl-3H-[1,2,3]triazolo[4,5-d]pyrimidin-7(6H)-one]	43
Cn1nnc2c(=O)[nH]c(N3CCN(c4c(F)cc(OCCN5CCC(N)CC5)cc4F)CC3)nc21 [compound 39, 5-(4-(4-(2-(4-Aminopiperidin-1-yl)ethoxy)-2,6-difluorophenyl)piperazin-1-yl)-3-methyl-3H-[1,2,3]triazolo[4,5-d]pyrimidin-7(6H)-one]	22.7
COCCCc1cc(F)c(N2CCN(c3nc4c(nnn4C)c(=O)[nH]3)CC2)c(F)c1 [compound 40, 5-(4-(2,6-Difluoro-4-(3-methoxypropyl)phenyl)piperazin-1-yl)-3-methyl-3H-[1,2,3]triazolo[4,5-d]pyrimidin-7(6H)-one]	93.1
Cn1nnc2c(=O)[nH]c(N3CCN(c4c(F)cc(OCCN5CCC(O)C5)cc4F)CC3)nc21 (stereo not drawn) [compound 41, 5-(4-(2,6-Difluoro-4-(2-(3-hydroxypyrrolidin-1-yl)ethoxy)phenyl)piperazin-1-yl)-3-methyl-3H-[1,2,3]triazolo[4,5-d]pyrimidin-7(6H)-one]	71.3
Cn1nnc2c(=O)[nH]c(N3CCN(c4c(F)cc(OCCN5CCC(O)CC5)cc4F)CC3)nc21 [compound 42, 5-(4-(2,6-Difluoro-4-(2-(4-hydroxypiperidin-1-yl)ethoxy)phenyl)piperazin-1-yl)-3-methyl-3H-[1,2,3]triazolo[4,5-d]pyrimidin-7(6H)-one]	51.4
Cn1nnc2c(=O)[nH]c(N3CCN(c4c(F)cc(OCCN5CCC(C)(O)CC5)cc4F)CC3)nc21 [compound 43, 5-(4-(2,6-Difluoro-4-(2-(4-hydroxy-4-methylpiperidin-1-yl)ethoxy)phenyl)piperazin-1-yl)-3-methyl-3H-[1,2,3]triazolo[4,5-d]pyrimidin-7(6H)-one]	50.9
COCCOc1cc(F)c(C2=CCN(c3nc4c(nnn4C)c(=O)[nH]3)CC2)c(F)c1 [compound 44, 5-(4-(2,6-Difluoro-4-(2-methoxyethoxy)phenyl)-5,6-dihydropyridin-1(2H)-yl)-3-methyl-3H-[1,2,3]triazolo[4,5-d]pyrimidin-7(6H)-one]	52.9
COCCOc1cc(F)c(C2CCN(c3nc4c(nnn4C)c(=O)[nH]3)CC2)c(F)c1 [compound 45, 5-(4-(2,6-Difluoro-4-(2-methoxyethoxy)phenyl)piperidin-1-yl)-3-methyl-3H-[1,2,3]triazolo[4,5-d]pyrimidin-7(6H)-one]	37.6
Cn1nnc2c(=O)[nH]c(N3CCN(c4c(F)cc(OCCN5CCOCC5)cc4F)CC3)cc21 [compound 54, 6-(4-(2,6-Difluoro-4-(2-morpholinoethoxy)phenyl)piperazin-1-yl)-1-methyl-1H-[1,2,3]triazolo[4,5-c]pyridin-4(5H)-one]	11
Cn1nnc2c(=O)[nH]c(N3CCN(c4c(F)cc(OCCN5CCCCC5)cc4F)CC3)cc21 [compound 55, 6-(4-(2,6-Difluoro-4-(2-(piperidin-1-yl)ethoxy)phenyl)piperazin-1-yl)-1-methyl-1H-[1,2,3]triazolo[4,5-c]pyridin-4(5H)-one]	29.3
CN(C)CCOc1cc(F)c(N2CCN(c3cc4c(nnn4C)c(=O)[nH]3)CC2)c(F)c1 [compound 56, 6-(4-(4-(2-(Dimethylamino)ethoxy)-2,6-difluorophenyl)piperazin-1-yl)-1-methyl-1H-[1,2,3]triazolo[4,5-c]pyridin-4(5H)-one]	27.5
Cn1nnc2c(=O)[nH]c(N3CCN(c4c(F)cc(OCCO)cc4F)CC3)cc21 [compound 57, 6-(4-(2,6-Difluoro-4-(2-hydroxyethoxy)phenyl)piperazin-1-yl)-1-methyl-1H[1,2,3]triazolo[4,5-c]pyridin-4(5H)-one]	7.98
